Test results: ChEMBL document CHEMBL2375305, “Synthesis of novel triterpene and N-allylated/N-alkylated niacin hybrids as α-glucosidase inhibitors” (Eur J Med Chem, 2013)
Calls of active or inactive are those of the source. The calls are words filed in the database; no cut-off is given here.

How the values were obtained:
[1] = species on record: Homo sapiens; experiment: Binding affinity to alpha-glucosidase (unknown origin) assessed as loss in secondary structure at 50 to 250 uM measured every 1 sec for 1 to 2 mins by CD spectroscopic analysis
[2] = species on record: Homo sapiens; experiment: Ratio of compound activity to acarbose activity for inhibition of alpha-glucosidase (unknown origin)
[3] = species on record: Homo sapiens; experiment: (§1) Inhibition of alpha-glucosidase (unknown origin) using PNPG as substrate incubated for 10 mins prior to substrate addition measured every 30 secs for 5 mins relative to control
[4] = as §1; design: species or system Homo sapiens
[5] = species on record: Homo sapiens; experiment: Non-competitive inhibition of alpha-glucosidase (unknown origin) using PNPG as substrate at 2 to 6 uM by Lineweaver-Burk plot analysis
[6] = system: Rattus norvegicus; experiment: Antihyperglycemic activity in sucrose-loaded STZ-induced diabetic rat model assessed as reduction in blood glucose level at 100 mg/kg, po administered 30 mins followed by sucrose administration measured after 5 hrs relative to vehicle-treated control; type: functional; design: scale not given: the % may be the effect or the level left
[7] = species on record: Homo sapiens; experiment: Inhibition of alpha-glucosidase (unknown origin) using PNPG as substrate at 100 uM incubated for 10 mins prior to substrate addition measured every 30 secs for 5 mins relative to control

SMILES | inhibition [3] | inhibition [7] [%] | further results
CC(C)=CC[n+]1cccc(C(=O)O[C@H]2CC[C@]3(C)[C@H]4CC=C5[C@@H]6[C@@H](C)[C@H](C)CC[C@]6(C)CC[C@@]5(C)[C@]4(C)CC[C@H]3C2(C)C)c1.[Br-] | Dose-dependent effect |  | Activity [1]: Active; Ratio [2]: 10; IC50 [4]: 5 µM; inhibition [5]: Active; Activity [6]: 19.9%
CCCCCCCCCCCCCCCC[n+]1cccc(C(=O)O[C@H]2CC[C@]3(C)[C@H]4CC=C5[C@@H]6[C@@H](C)[C@H](C)CC[C@]6(C)CC[C@@]5(C)[C@]4(C)CC[C@H]3C2(C)C)c1 | Dose-dependent effect |  | 
C=C(C)[C@@H]1CC[C@]2(C)CC[C@]3(C)[C@@H](CC[C@@H]4[C@@]5(C)CC[C@H](OC(=O)c6ccc[n+](CC=C(C)C)c6)C(C)(C)[C@@H]5CC[C@]43C)[C@H]12 |  | -4.4 | 
CCCCCCCCCCCC[n+]1cccc(C(=O)O[C@H]2CC[C@]3(C)[C@H]4CC=C5[C@@H]6[C@@H](C)[C@H](C)CC[C@]6(C)CC[C@@]5(C)[C@]4(C)CC[C@H]3C2(C)C)c1 | Dose-dependent effect |  | 
CCCCCCCCCCCCC[n+]1cccc(C(=O)O[C@H]2CC[C@]3(C)[C@H]4CC=C5[C@@H]6[C@@H](C)[C@H](C)CC[C@]6(C)CC[C@@]5(C)[C@]4(C)CC[C@H]3C2(C)C)c1 | Dose-dependent effect |  | 
C=C(C)[C@@H]1CC[C@]2(C)CC[C@]3(C)[C@@H](CC[C@@H]4[C@@]5(C)CC[C@H](OC(=O)c6ccc[n+](C/C=C(\C)CCC=C(C)C)c6)C(C)(C)[C@@H]5CC[C@]43C)[C@H]12 |  | 3.8 | 
C=C(C)[C@@H]1CCC2(C)CC[C@]3(C)[C@@H](CC[C@@H]4[C@@]5(C)CC[C@H](OC(=O)c6ccc[n+](CCCCCCCCCCCC)c6)C(C)(C)[C@@H]5CC[C@]43C)[C@H]12 (single isomer, unassigned) |  | 8.8 | 
C=C(C)[C@@H]1CC[C@]2(C)CC[C@]3(C)[C@@H](CC[C@@H]4[C@@]5(C)CC[C@H](OC(=O)c6ccc[n+](CCCCCCCCCCCCCCCC)c6)C(C)(C)[C@@H]5CC[C@]43C)[C@H]12 |  | 4.5 | 
